Measurements from article PMC11484510, “Antibacterial activity of structurally diverse natural prenylated isobavachalcone derivatives” (RSC Advances, 2024).
≈ marks a conversion by molar mass, not a printed value. Entries after “also recorded” stand apart in the source; their conditions may differ. Like-named read-outs stand apart in the source and are kept apart here.

Assays:
[1] = system: MRSA ATCC 15187; assay: MIC, broth microdilution (CLSI), Alamar blue; type: cell-based, Methicillin-resistant S. aureus; conditions: read-out: Minimum inhibitory concentration (MIC) MRSA
Source text: (§1) The bacterial strains S. aureus ATCC 29213, MRSA ATCC 15187, E. coli ATCC 25922, and P. aeruginosa ATCC 27853 were obtained from ATCC (American Type Culture Collection). Cation-adjusted Mueller–Hinton broth (MHB; Becton–Dickinson, Cockeysville, MD) was used to determine the minimum inhibitory concentration (MIC). Mueller–Hinton agar (MHA; Becton–Dickinson) was used for minimum bactericidal concentration (MBC) studies. Alamar blue (Himedia) was used to detect the MIC value.
(§2) The antibacterial activity of the compounds against S. aureus ATCC 29213, MRSA ATCC 15187, E. coli ATCC 25922, and P. aeruginosa ATCC 27853 was determined through a broth microdilution method according to the guidelines of the Clinical and Laboratory Standards Institute (CLSI).[50] […] Growth control and media control were employed along with 2% DMSO as vehicle control.
(§3) In a 96-well flat bottom plate, the test compounds were two-fold serially diluted in Mueller Hinton Broth (MHB). The final concentrations of the compounds ranged from 100 to 0.08 μM. 100 μL of standardized bacterial inoculum with turbidity equivalent to 0.5 McFarland standard (1.5 × 10^8 CFU mL^−1) was diluted 1 : 100 (1.5 × 10^6 CFU mL^−1) in Mueller Hinton Broth and inoculated in the plates.[51] The plates were incubated for 24 hours at 37 °C. After incubation, 10 μL of freshly prepared Alamar blue (Himedia) was added to each well of the plate, and plates were further incubated at 37 °C for 30 minutes. After incubation, the fluorescence was measured at excitation/emission of 540–570/580–610 nm. The percentage inhibition and viability were calculated for the controls, and the Gompertz curve was utilized to estimate the minimum inhibitory concentration.

[2] = system: S. aureus; assay: Combinational study (checkerboard microdilution) with standard drugs; type: cell-based; conditions: for MIC: Staphylococcus aureus, read-out: MIC alone
Experimental: The Fractional Inhibitory Concentration Index (FICI) was calculated for each test compound and reference drug to find the combinational effect.
In a 96-well flat bottom plate, the reference drug with 4× MIC was serially diluted horizontally. The test compounds with 4× MIC were serially diluted two-fold outside the plate in 1.5 mL Eppendorf's using Mueller Hinton Broth (MHB). These two serially diluted compounds were combined to create drug-compound combinations in the plate. The reference drug (horizontally) and tested compounds (vertically) alone were serially diluted for MIC determination. 100 μL of the standardized bacterial inoculum with a turbidity equivalent to a 0.5 McFarland standard were diluted 1 : 100 in Mueller Hinton Broth and inoculated in the plates. The plates were incubated for 24 hours at 37 °C. After incubation, 10 μL of freshly prepared Alamar blue (Himedia) was added to each well of the plate, and the plates were further incubated at 37 °C for 30 minutes. After incubation, the plates were visually observed. […] The FICI was calculated using the formula FICI = FIC of compound + FIC of drug. The calculation followed is FICI (CA/(MICA)) + (CB/(MICB)), where CA is the MIC of the compound in combination, CB is the MIC of the drug in combination, and MICA and MICB are the MIC values of individual compounds and drugs, respectively. The range selection followed the interpretation criteria. The FICI range of 0.5 to 4 indicates indifference, ≤ or =0.5 indicates synergy and >4 indicates antagonism.[57]

[3] = system: E. coli ATCC 25922; assay: MIC, broth microdilution (CLSI), Alamar blue; type: cell-based; conditions: E. coli ATCC 25922, 24 hours at 37 °C, read-out: Minimum inhibitory concentration (MIC) E. coli
Source text: as §1, §2, §3

[4] = system: P. aeruginosa ATCC 27853; assay: MIC, broth microdilution (CLSI), Alamar blue; type: cell-based; conditions: P. aeruginosa ATCC 27853, 24 hours at 37 °C, read-out: Minimum inhibitory concentration (MIC) P. aeruginosa
Source text: as §1, §2, §3

[5] = system: S. aureus ATCC 29213; assay: MIC, broth microdilution (CLSI), Alamar blue; type: cell-based; conditions: S. aureus ATCC 29213, 24 hours at 37 °C, read-out: Minimum inhibitory concentration (MIC) S. aureus
Source text: as §1, §2, §3

[6] = system: S. aureus ATCC 29213; assay: Time-kill assay; type: cell-based; conditions: for Time-kill profile: MIC, 2× MIC, 4× MIC, 1 h to 24 h, 37 °C
[7] = Cell viability assay (MTT); type: cell-based, murine; conditions: mouse, RAW 264.7 macrophage cells; RAW 264.7 macrophage cell line, MTT assay
Experimental: (§4) RAW 264.7 cells were acquired from the American type culture collection (ATCC, Manassas, VA) and cultured in Dulbecco's modified eagle's medium (DMEM, Gibco, Life Technologies, NY) supplemented with 10% fetal bovine serum (FBS) at 37 °C and 5% CO2. MTT dye (Himedia) was used to detect CC50 values. The antibiotics ciprofloxacin hydrochloride monohydrate (Himedia), kanamycin sulfate (Himedia), and vancomycin (Himedia) were used for reference in microbiological assays.
(§5) The effect of compounds (IBC, IBC-2, and IBC-3) on the viability of cells was evaluated at different concentrations against macrophage cell lines through the 3-(4,5-dimethylthiazol2-yl)-2, 5-diphenyltetrazolium bromide (MTT) assay. The RAW 264.7 cells are monocyte/macrophage-like cells originating from an Abelson leukemia virus-transformed cell line derived from BALB/c mice. Due to their reliability and consistency, these cell lines are widely utilized for both in vitro and in vivo analyses.[52] The MTT assay is a colorimetric assay used to measure the viability and cytotoxicity of cells. The cells (2 × 10^4 cells per well) were grown at 37 °C with 5% CO2 for 48 hours, then exposed to compounds with different concentrations. […] After 20–21 hours, 20 μL of MTT dye at 2.5 mg mL^−1 concentration was added to each well and incubated for 4 hours. 100 μL DMSO solubilized the water-insoluble purple and white formazan produced.[53] The formation of the formazan salt by mitochondrial dehydrogenases was measured at 570.0 nm after incubating for 20 min. The percentage cytotoxicity was calculated with respect to the untreated cells, and the CC50 value was calculated. CC50 was defined as the concentration of an inhibitor that reduces cellular activities by 50% compared to untreated control cultures. The CC50 values were calculated as the concentration where the absorbance was reduced by 50% using GraphPad Prism software.[54] The selectivity index (SI) determines the safety profile of the compound. It is calculated as the ratio of compound concentration at which 50% of cell growth is inhibited compared to untreated cells (CC50) to the effective inhibiting concentration against bacterial strain (MIC). The high SI (>10 fold of MIC) of a drug is proven to have a favorable safety profile.[28] Selectivity index (SI) = CC50 of the compound (μM)/MIC of the compound (μM).

[8] = system: RAW 264.7 macrophage cell line; assay: Cell viability assay (MTT); type: cell-based, murine; conditions: CC50 (RAW 264.7)/MIC with respect to S. aureus
Experimental: as §4, §5

[9] = system: P. aeruginosa ATCC 27853; assay: MBC, plating on MHA; type: cell-based; conditions: Pseudomonas aeruginosa, ATCC27853; more than 99.9% of the cells killed; read-out: Minimum bactericidal concentration (MBC) P. aeruginosa
Source text: as §1
(§6) MBC is defined as the lowest concentration of the compound at which more than 99.9% of the cells were killed compared with the growth control. The minimum compound concentration at which no visible bacterial growth was observed was taken as the Minimum Bactericidal Concentration (MBC).[50]

[10] = system: S. aureus ATCC 29213; assay: MBC, plating on MHA; type: cell-based; conditions: Staphylococcus aureus, ATCC29213; more than 99.9% of the cells killed; read-out: Minimum bactericidal concentration (MBC) S. aureus
Source text: as §1, §6

[11] = system: S. aureus; assay: Cell integrity analysis by PI staining; type: cell-based; conditions: drug control at 1× MIC, 30 minutes
Experimental: Propidium iodide (PI) indicates cell integrity, emitting a red fluorescence signal. PI's polar and hydrophilic nature impedes its entrance within active bacterial cells, but within perforated dead cells, it can easily bind to nucleic acid (DNA/RNA).[32,60]S. aureus bacterial cells were incubated overnight at 37 °C and diluted further 1 : 100 in Mueller Hinton Broth (MHB). The diluted culture was grown until its OD600 reached 0.5. […] Vancomycin was used as a drug control at 1× MIC, while untreated bacterial cells were used as growth control. The samples were centrifuged at 5000 rpm speed at 4 °C temperature for 10 minutes, and the pellet was washed two times using phosphate-buffered saline pH-7.4 (PBS). To stain the sample (dead cells), 3 μL PI of 20.0 mM concentration was added to the 1 mL solution (pellet resuspended in PBS) and incubated for 15 minutes. To remove the dye, the samples were centrifuged again and washed with PBS once. The final pellet was resuspended in 1 mL of PBS, and 30 μL of each undiluted sample was used to obtain fluorescence imaging. The cells were observed under fluorescence microscopy.[61]

[12] = MRSA ATCC 15187, 24 hours at 37 °C
[13] = Staphylococcus aureus, MRSA ATCC 15187, 24 hours at 37 °C
[14] = MIC of the compound in combination with ciprofloxacin, S. aureus
[15] = MIC of the compound in combination with vancomycin, S. aureus
[16] = checkerboard, S. aureus, substance alone
[17] = compound with ciprofloxacin, S. aureus
[18] = compound with vancomycin, S. aureus
[19] = Pseudomonas aeruginosa, ATCC27853, 24 h
[20] = Staphylococcus aureus, ATCC29213

MIC [1, 12] | MIC [1, 13] | MIC combination (compound) [2, 14] | MIC combination (compound) [2, 15] | MIC [2, 16] | MIC [3] | MIC ([3]; Escherichia coli, ATCC25922) | MIC [4, 19] | MIC [5] | MIC [5, 20] | Compound | Outcome of combination [2, 17] | ∑ FICI [2, 17] | Outcome of combination [2, 18] | ∑ FICI [2, 18] | Time-kill profile [6] | CC50 [7] | MBC [9] | MBC [10] | further results
>100 µM | > 100 µM | 5 µM | 2.5 µM | 5 µM | >100 µM | > 100 µM | 24 µM (≈ 7.79 µg/mL) | 5 µM (≈ 1.62 µg/mL) | 5 µM (≈ 1.62 µg/mL) | CC(C)=CCc1c(O)ccc(C(=O)/C=C/c2ccc(O)cc2)c1O [IBC, (E)-1-(2,4-dihydroxy-3-(3-methylbut-2-en-1-yl)phenyl)-3-(4-hydroxyphenyl) prop-2-en-1-one] | Indifference (The FICI range of 0.5 to 4 indicates indifference) | 1.25 | Indifference (The FICI range of 0.5 to 4 indicates indifference) | 0.99 | after 24 hours, an increase in CFU was observed; also recorded: concentration-dependent killing till 9 h | 94 µM | 25 µM (≈ 8.11 µg/mL) | 6.25 µM (≈ 2.03 µg/mL) | Selectivity index (SI) [8]: 19
>100 µM | > 100 µM | 0.625 µM | 5 µM | 5 µM | >100 µM | > 100 µM | 24 µM (≈ 7.79 µg/mL) | 5 µM (≈ 1.62 µg/mL) | 5 µM (≈ 1.62 µg/mL) | CC1(C)CCc2c(ccc3c2OC(c2ccc(O)cc2)CC3=O)O1 (stereo not drawn) [IBC-2, 2-(4-hydroxyphenyl)-8,8-dimethyl-2,3,9,10-tetrahydro-4H,8H-pyrano[2,3-f]chromen-4-one] | Indifference (The FICI range of 0.5 to 4 indicates indifference) | 0.625 | Indifference (The FICI range of 0.5 to 4 indicates indifference) | 2 | concentration-dependent killing effect; also recorded: concentration and time-dependent killing effects | 115 µM | 50 µM (≈ 16.2 µg/mL) | 12.5 µM (≈ 4.05 µg/mL) | MIC [4]: 22 µM (≈ 7.14 µg/mL); CFU count of S. aureus ATCC 29213 in time-kill study ([6]; 2× MIC and 4× MIC, with increasing time (up to 24 h)): below the detection limit
 |  |  |  |  |  |  |  |  |  | CN[C@H](CC(C)C)C(=O)N[C@H]1C(=O)N[C@@H](CC(N)=O)C(=O)N[C@H]2C(=O)N[C@H]3C(=O)N[C@H](C(=O)N[C@H](C(=O)O)c4cc(O)cc(O)c4-c4cc3ccc4O)[C@H](O)c3ccc(c(Cl)c3)Oc3cc2cc(c3O[C@@H]2O[C@H](CO)[C@@H](O)[C@H](O)[C@H]2O[C@H]2C[C@](C)(N)[C@H](O)[C@H](C)O2)Oc2ccc(cc2Cl)[C@H]1O [Vancomycin, vancomycin, reference compound] |  |  |  |  |  |  |  |  | MIC ([1]; Staphylococcus aureus, 24 h): 0.7 µM (≈ 1.01 µg/mL); PI red fluorescence (cell integrity) [11]: higher number of dead cells emitting red fluorescence; MIC combination (drug) ([2]; MIC of vancomycin in combination with IBC, S. aureus): 0.39 µM; MIC combination (drug) ([2]; MIC of vancomycin in combination with IBC-2, S. aureus): 0.78 µM; MIC combination (drug) ([2]; MIC of vancomycin in combination with IBC-3, S. aureus): 0.02 µM; MIC [2]: 0.78 µM
